Results on 21 compounds are retold here after USRE36494E, “2-aralkoxy and 2-alkoxy adenosine derivatives as coronary vasodilators and antihypertensive agents” (Discovery Therapeutics, Inc., priority 1993, dated 2000).

Assay [1] addresses T1, A2 receptor of the coronary artery (Cavia porcellus, UniProt P46616).
T1 construct: perfused hearts from female Sprague-Dawley guinea pigs in an isolated Langendorff heart preparation; from tissue; host or cells: isolated perfused guinea pig heart (Langendorff), coronary vasculature
The assay can be described thus: Coronary blood flow increase (A2 effect), isolated perfused Langendorff heart. Set-up: species or system guinea pig (female Sprague-Dawley guinea pigs). Particulars: for affinity and selectivity for A2 adenosine receptors (in words): qualitative statement; for Selectivity (A1/A2): ratio of SQ prolongation ED50 (A1) to coronary flow EC50 (A2). As to the method: (§1) Assays of the cardiovascular potency of the above compounds at the A1 receptors of the SA node and at the A2 receptor of the coronary artery employed perfused hearts from female Sprague-Dawley guinea pigs in an isolated Langendorff heart preparation. An assay consists of an infusion of a spectophotometrically standardized solution of test compound directly into the aortic cannula at rates increasing stepwise every 5 minutes. Collection of the total cardiac effluent during the first half of each infusion period provides a measure of coronary flow (A2 effect). The concentration of test compound required to produce a half-maximal increase in coronary flow is determined. Registration of the ECG assesses the effect of the test compound on SA node (stimulus to Q interval, A1 effect). The concentration of test compound required to produce a half-maximal prolongation of stimulus to Q interval is determined. […] The ratio of A1 and A2 effects of test compounds are calculated to provide the selectivity ratio.

Assay [2] has as its target T2, A1 receptors of the SA node (Cavia porcellus, UniProt P47745).
T2 construct: perfused hearts from female Sprague-Dawley guinea pigs in an isolated Langendorff heart preparation; from tissue; host or cells: isolated perfused guinea pig heart (Langendorff), nodal/conducting tissue
T2 sequence (P47745 1-326): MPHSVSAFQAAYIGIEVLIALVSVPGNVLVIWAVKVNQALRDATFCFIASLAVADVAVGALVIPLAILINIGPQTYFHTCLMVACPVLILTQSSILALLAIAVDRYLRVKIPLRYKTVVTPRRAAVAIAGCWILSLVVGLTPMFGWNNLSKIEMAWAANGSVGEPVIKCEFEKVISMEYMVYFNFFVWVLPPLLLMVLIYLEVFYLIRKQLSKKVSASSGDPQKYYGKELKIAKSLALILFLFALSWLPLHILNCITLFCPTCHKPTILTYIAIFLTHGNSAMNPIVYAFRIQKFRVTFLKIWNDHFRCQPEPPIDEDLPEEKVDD
Briefly: SQ (stimulus to Q) interval prolongation (A1 effect), isolated perfused Langendorff heart. Details: species or system guinea pig (female Sprague-Dawley guinea pigs). Particulars: concentration for half-maximal prolongation of stimulus to Q interval; infusion into aortic cannula, stepwise every 5 minutes; read-out: SQ Prolongation (A1) ED50. The procedure:
as §1

Molecules are shown by their SMILES. pEC50: −log10 of the molar value.

T1 sequence (P46616 whole entry, the tested form may be a part): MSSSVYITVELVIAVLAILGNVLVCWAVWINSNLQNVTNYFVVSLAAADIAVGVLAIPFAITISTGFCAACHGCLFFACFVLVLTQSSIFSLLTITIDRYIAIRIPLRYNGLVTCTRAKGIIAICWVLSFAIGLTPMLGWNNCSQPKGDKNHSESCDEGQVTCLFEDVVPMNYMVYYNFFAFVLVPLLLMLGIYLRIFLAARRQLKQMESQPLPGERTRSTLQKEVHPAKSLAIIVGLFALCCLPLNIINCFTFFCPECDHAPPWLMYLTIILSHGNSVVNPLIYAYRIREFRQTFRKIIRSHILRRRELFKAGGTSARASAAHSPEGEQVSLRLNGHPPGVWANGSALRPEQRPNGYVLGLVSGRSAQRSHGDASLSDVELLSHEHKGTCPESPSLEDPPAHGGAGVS

On to `CCNC(=O)[C@H]1O[C@@H](n2cnc3c(N)nc(OCCc4ccccc4)nc32)[C@H](O)[C@@H]1O` [Example 22, 2-(2-phenyl)ethoxy-5'-N-ethylcarboxamidoadenosine], for which, in assay [1], the “affinity and selectivity for A2 adenosine receptors (in words)” value (“affinity and selectivity” for short) is “high affinity and selectivity”; the “Selectivity (A1/A2)” value came out at 11509.

For `Nc1nc(OCCCCc2ccccc2)nc2c1ncn2[C@@H]1O[C@H](CO)[C@@H](O)[C@H]1O` [Example 20, 2-(4-phenyl-1-butoxy)adenosine], the “Selectivity (A1/A2)” value in assay [1] amounted to 743.

With `COc1ccc(CCOc2nc(N)c3ncn([C@@H]4O[C@H](CO)[C@@H](O)[C@H]4O)c3n2)cc1` [Example 10, 2-[2-(4-methoxyphenyl)ethoxy]adenosine], the pEC50 in assay [2] is 4.71. Besides, in assay [1], the “affinity and selectivity” value is “high affinity and selectivity”; the “Selectivity (A1/A2)” value was determined as 14089.

For the compound `Cc1ccccc1CCOc1nc(N)c2ncn([C@@H]3O[C@H](CO)[C@@H](O)[C@H]3O)c2n1` [Example 11, 2-[2-(2-methylphenyl)ethoxy]adenosine], the pEC50 in assay [2] is 4.60. Further, in assay [1], the “Selectivity (A1/A2)” value is 6610. With `Nc1nc(OCCc2cccc3ccccc23)nc2c1ncn2[C@@H]1O[C@H](CO)[C@@H](O)[C@H]1O` [Example 15, 2-[2-(1-naphthyl)ethoxy]adenosine], the pEC50 in assay [2] was 5.07. Turning to `CC[C@@H](COc1nc(N)c2ncn([C@@H]3O[C@H](CO)[C@@H](O)[C@H]3O)c2n1)c1ccccc1` [Example 18], the pEC50 in assay [2] is 4.73; in assay [1] (concentration for half-maximal increase in coronary flow, infusion into aortic cannula, stepwise every 5 minutes), 6.43. Besides, in assay [1], the “Selectivity (A1/A2)” value is 50.

Regarding `Nc1nc(OCCc2c[nH]c3ccccc23)nc2c1ncn2[C@@H]1O[C@H](CO)[C@@H](O)[C@H]1O` [Example 16, 2-[2-(3-indolyl)ethoxy]adenosine], the pEC50 in assay [2] is 4.85. Regarding `Nc1nc(OCCc2ccccc2)nc2c1ncn2[C@@H]1O[C@H](CO)[C@@H](O)[C@H]1O` [Example 7, 2-(2-phenylethoxy)adenosine], the pEC50 in assay [2] is 4.70. In addition, the “Selectivity (A1/A2)” value in assay [1] was determined as 7126. The like results for `COc1cc(CCOc2nc(N)c3ncn([C@@H]4O[C@H](CO)[C@@H](O)[C@H]4O)c3n2)cc(OC)c1OC` [Example 12, 2-[2-(3,4,5-trimethoxyphenyl)ethoxy]adenosine] were, in that order, 4.33 and 2151. On the same counts, the results for `Nc1nc(OCCCc2ccccc2)nc2c1ncn2[C@@H]1O[C@H](CO)[C@@H](O)[C@H]1O` [Example 1, 2-(3-phenyl-1-propoxy)adenosine] are 4.70 and 326. As for `Nc1nc(OCCc2ccc(F)cc2)nc2c1ncn2[C@@H]1O[C@H](CO)[C@@H](O)[C@H]1O` [Example 2, 2-[2-(4-fluorophenyl)ethoxy]adenosine], in assay [2], the pEC50 is 4.59. Further, in assay [1], the “affinity and selectivity” value is “high affinity and selectivity”; the “Selectivity (A1/A2)” value was determined as 29432. Consider `Nc1nc(OCCCCCc2ccccc2)nc2c1ncn2[C@@H]1O[C@H](CO)[C@@H](O)[C@H]1O` [Example 21, 2-(5-phenyl-1-pentoxy)adenosine], for which, in assay [2], the pEC50 was 5.34.

`Nc1nc(OC2CCCCC2)nc2c1ncn2[C@@H]1O[C@H](CO)[C@@H](O)[C@H]1O` [Example 4, 2-Cyclohexyloxyadenosine]: the “Selectivity (A1/A2)” value in assay [1] turned out to be 152. On to `Nc1nc(OCc2ccccc2)nc2c1ncn2[C@@H]1O[C@H](CO)[C@@H](O)[C@H]1O` [Example 6, 2-benzyloxyadenosine], for which the pEC50 in assay [2] was 5.20. The “Selectivity (A1/A2)” value in assay [1] was 15. For `CC(COc1nc(N)c2ncn([C@@H]3O[C@H](CO)[C@@H](O)[C@H]3O)c2n1)c1ccccc1` (stereo partly drawn) [Example 17, 2-(2-phenyl-1-propoxy)adenosine], in assay [1], the “Selectivity (A1/A2)” value was 5899.

Turning to `Nc1nc(OCCc2cccs2)nc2c1ncn2[C@@H]1O[C@H](CO)[C@@H](O)[C@H]1O` [Example 13, 2-[2-(2-thienyl)ethoxy]adenosine], the pEC50 in assay [2] is 4.93. Besides, the “Selectivity (A1/A2)” value in assay [1] came to 3212. As for `CC[C@H](COc1nc(N)c2ncn([C@@H]3O[C@H](CO)[C@@H](O)[C@H]3O)c2n1)c1ccccc1` [Example 19, 2-[(2S)-phenyl-1-butoxy]adenosine], the “Selectivity (A1/A2)” value in assay [1] is on record as 872. `COc1cccc(CCOc2nc(N)c3ncn([C@@H]4O[C@H](CO)[C@@H](O)[C@H]4O)c3n2)c1` [Example 9, 2-[2-(3-methoxyphenyl)ethoxy]adenosine]: in assay [2], the pEC50 was 4.79. In assay [1], the “Selectivity (A1/A2)” value worked out at 6238. Regarding `COc1ccccc1CCOc1nc(N)c2ncn([C@@H]3O[C@H](CO)[C@@H](O)[C@H]3O)c2n1` [Example 8, 2-[2-(2-methoxyphenyl)ethoxy]adenosine], the pEC50 in assay [2] is 4.45. Moreover, the “Selectivity (A1/A2)” value in assay [1] is given as 1109.

Take `Nc1nc(OCCc2ccc3ccccc3c2)nc2c1ncn2[C@@H]1O[C@H](CO)[C@@H](O)[C@H]1O` [Example 24, 2-[2-(2-naphthyl)ethoxy]adenosine]: in assay [2], the pEC50 is 4.94. Turning to `Nc1nc(OC2CCCC2)nc2c1ncn2[C@@H]1O[C@H](CO)[C@@H](O)[C@H]1O` [Example 3, 2-Cyclopentyloxyadenosine], in assay [1], the “Selectivity (A1/A2)” value is recorded as 866.
